According to patent US20240101599A1, “PEPTIDE, CELL GROWTH PROMOTER, PROTEIN PRODUCTION PROMOTER, CULTURE MEDIUM, CELL GROWTH METHOD USING PEPTIDE, AND PROTEIN PRODUCTION METHOD USING PEPTIDE” (Maruhachi Muramatsu, Inc., priority 2020, published 2024):
Like-named read-outs stand apart in the source and are kept apart here. Peptide text beside a SMILES is read from it.

What was measured:
[1] = test system: serum-free floating CHO DP-12; assay: Protein production test on AGK and GPP in floating cell system; format: cell-based; settings: AGK 3.95 mM, GPP 4.40 mM + medium supplemented with vitamins and the like, ELISA
Description: Peptides having the sequences of Ala-Gly-Lys (AGK) and Gly-Pro-Pro (GPP) were synthesized to prepare peptide solutions of 5.53 mM of Ala-Gly-Lys (AGK) and 6.16 mM of Gly-Pro-Pro (GPP).
5 mL of each of a basal medium, a medium supplemented with vitamins and the like (basal medium +a component supplemented with vitamins and the like), and each peptide solution was added to each well of a 24-well (Deep well) cassette of Micro-24 Bioreactor System (manufactured by Nihon Pall Corporation) to perform culture overnight under the conditions of 37° C., pH 7, and 650 rpm. On the next day, pH calibration was performed, and thereafter 2 mL of the cell suspension prepared at 3.5×10^5 cells/mL was added to each well of the 24-well (Deep well) cassette, seeded such that the cell density of the floating cells was 1×10^5 cells/mL (7 mL/well), and cultured in the following evaluation medium under culture conditions of 37° C., pH 7, 650 rpm, and dissolved oxygen of 30%.
• Basal medium • Medium supplemented with vitamins and the like (basal medium+component supplemented with vitamins and the like) • AGK (3.95 mM)+medium supplemented with vitamins and the like • GPP (4.40 mM)+medium supplemented with vitamins and the like
As a culture medium, a basal medium in which 200 nM of methotrexate, 10 μg/mL of insulin, 5.5 μg/mL of transferrin, 6.7 ng/mL of sodium selenite, 10 μL/mL of Anti-Clumping Agent, and 10 μL/mL of 10% Pluronic F68 were blended in a DMEM/F12 culture medium (Gibco) was used.
As the floating cells used, serum-free floating CHO DP-12 obtained by acclimating CHO DP-12 (ATCC, Cat. No. CRL-12445) to serum-free flotation and subculturing using a 100 mL volume Erlenmeyer flask and with a shaking culture device (Custom Bio Shaker CO2-BR-43FL, TAITEC CORPORATION) under the culture conditions of 37° C., 5% CO2, and a stirring speed of 125 rpm was used.
After the third day of culture, 150 μL of the culture medium was recovered in a 1.5 mL tube from each well of the 24-well (Deep well) cassette to perform a centrifugation operation (5,000 rpm, for 5 minutes), and the supernatant was recovered to measure the amount of produced protein by ELISA.

CHO-K1 = assay: Cell growth test of each peptide on coating agent for 3 days; format: cell-based; design: Viability, 1 / Viability, 2 / Viability, 3 / Viability, Average: unit not given here; settings: 2.1 mM Gly-Glu-Lys, poly-L-lysine coating; for Cells cell count, Average / Viability, Average: average n=3, 2.2 mM Asp-Gly-Pro; for Cells cell count, 1 / Viability, 1: replicate 1, 2.2 mM Asp-Gly-Pro; for Cells cell count, 2 / Viability, 2: replicate 2, 2.2 mM Asp-Gly-Pro; for Cells cell count, 3 / Viability, 3: replicate 3, 2.2 mM Asp-Gly-Pro
Description: Peptides having the sequences of Gly-Glu-Lys (GEK) and Asp-Gly-Pro (DGP) were synthesized to prepare each peptide solution such that the concentration was a concentration at which the cell number increased the most within a range of 0 mM to 5 mM. In other words, Gly-Glu-Lys (GEK) was adjusted to 21 mM, and Asp-Gly-Pro (DGP) was adjusted to 22 mM, and an amount of 1/10 of the total culture medium volume was added to each well immediately before the cell culture test such that final concentrations were 2.1 mM and 2.2 mM, respectively.
Poly-L-lysine (Peptide Institute, Inc., Poly-L-Lysine Hydrochloride, code: 3075) was prepared to 0.1 mg/mL, and 200 μL was dispensed into each well of a 24-well plate, which was left to stand in an incubator at 37° C. for 2 hours. After removing the residual liquid with an aspirator, rinsing was performed with distilled water, irradiation was performed with a UV lamp in a clean bench without a lid, and drying was performed overnight to sterilize. A cell suspension prepared such that CHO-K1 (RIKEN BioResource Research Center, cell number: RCB2330) was at 4×10^4 cells/mL was seeded in a 24-well plate at 500 μL/well and cultured in an incubator at 37° C. and 5% CO2 for 24 hours. As a culture medium, an MEMα culture medium (Gibco) containing 10% FBS was used.
After removing the culture medium from each well and washing with the MEMα culture medium (500 μL), 450 μL of a new MEMα culture medium was dispensed into each well, and each peptide solution (50 μL) was added (total 500 μL/well) to perform culture for 3 days. The cells were recovered to count the cell number. A similar culture test was performed using a system containing neither peptide nor FBS as a comparative sample.
The culture medium in each well was recovered in a 1.5 mL tube to be rinsed with 200 μL of MEMα, and the rinsed liquid was also recovered in the same 1.5 mL tube. Thereafter, 100 μL of trypsin was added and incubated for 3 minutes. After rinsing with 300 μL of MEMα containing 10% FBS, the rinsed liquid was also recovered in the same 1.5 mL tube. After rinsing again with 200 μL of MEMa containing 10% FBS, the rinsed liquid was also recovered in the same 1.5 mL tube.
A centrifugation operation was performed on the cells recovered in the 1.5 mL tube. The centrifugation conditions were 1,000 rpm, 10 minutes, and 4° C.
The supernatant was removed, and 300 μL of Cold PBS (phosphate buffered saline) was added to perform a centrifugation operation under the same conditions. The present operation was repeated twice.
Suspension was carried out with 100 μL of Binding Buffer, and 2 μL of propidium iodide (PI) was added and stirred in the tube to cause a reaction for 15 minutes at room temperature and with light shielding. Thereafter, the viable cell count and the viability were measured with a flow cytometer.
The above preparation, culture, and measurement were performed with n=3. Table 13 and FIG. 13 show the viable cell count in each peptide solution, and Table 14 and FIG. 14 show the cell viability in each peptide solution.

[2] = test system: serum-free floating CHO DP-12; settings: GEK 2.05 mM, DGP 1.11 mM + medium supplemented with vitamins and the like; for Amount of protein produced: ELISA
Description: 5 mL of each of a DMEM/F12 basal medium, a medium supplemented with vitamins and the like (DMEM/F12 basal medium+a component supplemented with vitamins and the like), and each peptide solution was added to each well of a 24-well (Deep well) cassette of Micro-24 Bioreactor System (manufactured by Nihon Pall Corporation) to perform culture overnight under the conditions of 37° C., pH 7, and a stirring speed of 650 rpm. On the next day, pH calibration was performed, and thereafter 2 mL of the cell suspension prepared at 3.5×10^5 cells/mL was added to each well of the 24-well (Deep well) cassette, seeded such that the cell density of the floating cells was 1×10^5 cells/mL (7 mL/well), and cultured in the following evaluation medium under culture conditions of 37° C., pH 7, a stirring speed of 650 rpm, and dissolved oxygen of 30%.
• DMEM/F12 basal medium • Medium supplemented with vitamins and the like (basal medium+component supplemented with vitamins and the like) • GEK (2.05 mM)+medium supplemented with vitamins and the like • DGP (1.11 mM)+medium supplemented with vitamins and the like
As a culture medium, a DMEM/F12 basal medium in which 200 nM of methotrexate, 10 μg/mL of insulin, 5.5 μg/mL of transferrin, 6.7 ng/mL of sodium selenite, 10 μL/mL of Anti-Clumping Agent, and 10 μL/mL of 10% Pluronic F68 were blended in a DMEM/F12 culture medium (Gibco) was used.
After the third day of culture, 200 pμL of the culture medium was recovered in a 1.5 mL tube from each well of the 24-well (Deep well) cassette. 50 μL out of this was put in another 1.5 mL tube, and after adding 50 μL of trypan blue to sufficiently suspend, the viable cell count and the viability were measured using a cell counter (Countess II, manufactured by Life Technologies Corporation).
After the third day of culture, 150 μL out of 200 μL of the culture medium recovered from each well of the 24-well (Deep well) cassette was subjected to a centrifugation operation (5,000 rpm, for 5 minutes) in a 1.5 mL tube, and the supernatant was separately recovered to measure the amount of produced protein by ELISA.

| Molecule | Amount of protein produced ([1]; Day 3) | Amount of protein produced ([1]; Day 4) | Amount of protein produced ([1]; Day 5) | Amount of protein produced ([1]; Day 6) | Amount of protein produced ([1]; Day 7) | Cells cell count, Average (CHO-K1) | Viability, Average (CHO-K1) | Cells cell count, 1 (CHO-K1) | Viability, 1 (CHO-K1) | Cells cell count, 2 (CHO-K1) | Viability, 2 (CHO-K1) | Cells cell count, 3 (CHO-K1) | Viability, 3 (CHO-K1) | cell number ([2]; Day 0) | cell number ([2]; Day 3) | Amount of protein produced ([2]; Day 3) | cell number ([2]; Day 4) | Amount of protein produced ([2]; Day 4) | cell number ([2]; Day 5) | Amount of protein produced ([2]; Day 5) | other results |
| --- | --- | --- | --- | --- | --- | --- | --- | --- | --- | --- | --- | --- | --- | --- | --- | --- | --- | --- | --- | --- | --- |
| C[C@H](N)C(=O)NCC(=O)N[C@@H](CCCCN)C(=O)O [AGK, Ala-Gly-Lys] (H-Ala-Gly-Lys-OH; N-terminus and C-terminus assumed) | 17.74 mg/L | 31.36 mg/L | 49.43 mg/L | 65.58 mg/L | 73.46 mg/L |  |  |  |  |  |  |  |  |  |  |  |  |  |  |  |  |
| NCCCC[C@H](NC(=O)[C@H](CCC(=O)O)NC(=O)CN)C(=O)O [GEK, Gly-Glu-Lys] (H-Gly-Glu-Lys-OH; N-terminus and C-terminus assumed) |  |  |  |  |  | 19.35 ×10^4 | 94.5 | 17.94 ×10^4 | 94.7 | 19.72 ×10^4 | 95.1 | 20.39 ×10^4 | 93.8 | 0.10 ×10^6cells/ml | 1.73 ×10^6cells/ml | 26.32 mg/L | 2.40 ×10^6cells/ml | 54.96 mg/L | 2.65 ×10^6cells/ml | 75.54 mg/L | cell number ([2]; Day 6): 2.64 ×10^6cells/ml; Amount of protein produced ([2]; Day 6): 98.46 mg/L; cell number ([2]; Day 7): 3.05 ×10^6cells/ml; Amount of protein produced ([2]; Day 7): 127.08 mg/L |
| Asp-Gly-Pro [DGP] |  |  |  |  |  | 11.99 ×10^4 | 78.5 | 11.69 ×10^4 | 77.9 | 10.47 ×10^4 | 75.6 | 13.82 ×10^4 | 82.0 | 0.10 ×10^6cells/ml | 1.15 ×10^6cells/ml | 19.86 mg/L | 2.52 ×10^6cells/ml | 43.99 mg/L | 2.58 ×10^6cells/ml | 63.65 mg/L | Viability ([2]; Day 0): 98.0%; Viability ([2]; Day 3): 97.50%; Viability ([2]; Day 4): 97.50%; Viability ([2]; Day 5): 94.50%; Viability ([2]; Day 6): 87.00%; cell number ([2]; Day 6): 3.50 ×10^6cells/ml; Amount of protein produced ([2]; Day 6): 82.54 mg/L; Viability ([2]; Day 7): 81.50%; cell number ([2]; Day 7): 3.01 ×10^6cells/ml; Amount of protein produced ([2]; Day 7): 104.75 mg/L |
| Gly-Pro-Pro [GPP] | 14.95 mg/L | 32.30 mg/L | 52.53 mg/L | 67.01 mg/L | 80.86 mg/L |  |  |  |  |  |  |  |  |  |  |  |  |  |  |  |  |
